Experiments:
tau proteins = conditions: tauopathy model mice, Non-Patent Document 3; cited from earlier work
[1] = tested on: Drosophila expressing human tau in neurons (elav/Y; hTau/+); test: Motor function (climbing assay, negative gravitaxis) of Drosophila expressing human tau in neurons; assay type: in vivo; conditions: 1 mM in food, versus non-administration group, FIG. 5
Procedure: (§1) Male F1 Drosophila one to three days after emergence were bred under an environment consisting of a temperature of 25±3° C., a humidity of 60±10%, and a light-dark cycle of 12 hours. […] The flies were transferred into a vial filled with fresh food once every two weeks.
The motor function of Drosophila of was measured by performing climbing assay and evaluating negative gravitaxis. The climbing assay was carried out under the following conditions. Drosophila was transferred into an empty vial containing no food, and the vial was then hit, so that flies fell to the bottom. Thereafter, the movement of the flies climbing up the wall was captured on video. The flies, which were below the line drawn at the position 3 cm from the bottom 10 seconds after they had fallen to the bottom, were defined as “flies that could not climb”, and flies, which were above the aforementioned line, were defined as “flies that could climb”. The number of flies of each type was counted. The total number of flies in the vial was set at 100%, and the percentage of the flies that could climb was calculated.

human tau protein = biological target: T1, human tau protein (Homo sapiens, UniProt P10636); test: Quantification of aggregated tau in brain of Drosophila expressing human tau in neurons (elav/Y; hTau/+); assay type: in vivo; conditions: hTau/+ flies, 1 mM in food, bred 1 month, versus non-administration group (100%), FIG. 4
T1 construct: expressed in transfected cells; host or cells: transgenic Drosophila (GAL4-UAS; gmr-gal4 compound eyes or elav^C155-gal4 neurons), fly heads
T1 sequence (P10636 1-441 isoform P10636-8): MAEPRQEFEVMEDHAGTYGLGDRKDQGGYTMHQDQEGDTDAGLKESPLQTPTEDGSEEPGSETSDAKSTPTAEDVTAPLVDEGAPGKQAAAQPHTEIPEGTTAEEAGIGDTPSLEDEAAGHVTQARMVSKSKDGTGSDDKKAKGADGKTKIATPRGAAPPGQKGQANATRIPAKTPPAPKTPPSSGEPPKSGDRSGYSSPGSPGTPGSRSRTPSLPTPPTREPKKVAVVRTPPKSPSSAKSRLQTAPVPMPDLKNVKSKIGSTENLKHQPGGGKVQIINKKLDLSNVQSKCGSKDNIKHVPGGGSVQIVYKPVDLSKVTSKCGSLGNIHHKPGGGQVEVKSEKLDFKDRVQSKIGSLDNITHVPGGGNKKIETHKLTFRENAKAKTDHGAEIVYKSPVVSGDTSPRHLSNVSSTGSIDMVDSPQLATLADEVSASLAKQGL
Procedure: Thereafter, the recovered heads were cryopreserved at −80° C. […] The obtained supernatant was recovered in another ultracentrifuge tube.
Using the screening system established in 3 above, the tau protein aggregation-inhibiting effect of rose bengal, which is a fluorone dye, was evaluated. […] Thereafter, the accumulation of aggregated tau in brain was quantified according to the procedures in (2) above.

wild-type Drosophila [2] = test: Survival rate of wild-type Drosophila; conditions: wild-type flies, 1 mM in food, versus non-administration group, FIG. 7
Procedure: as §1
Drosophila were bred under the conditions described in (1) above, and the number of surviving flies was counted every three days, and the survival rate was then calculated.
As a control, the Drosophila in the non-administration group was used.

wild-type Drosophila [3] = conditions: in vivo
Procedure: as §1

[4] = tested on: Drosophila expressing human tau in mushroom body neurons (mb/Y; hTau/+); test: Olfactory memory (discrimination learning test with odor and electric shock) of Drosophila expressing human tau in mushroom body neurons; assay type: in vivo; conditions: hTau/+ flies, administered over 1 week, versus non-administration, FIG. 9
Procedure: as §1

SMILES	accumulation of tau proteins in the brains (tau proteins)	motor function (percentage of flies that could climb) [1]	accumulated amount of aggregated tau in brain (human tau protein)	survival rate (wild-type Drosophila [2])	olfactory memory (wild-type Drosophila [3])	olfactory memory [4]
O=C1NC(=O)C(=O)C(=O)N1 [alloxan]	reduced					
CN(C)c1ccc2nc3ccc(=[N+](C)C)cc-3sc2c1 [methylene blue]		recovered	reduction	significantly reduced		
O=C([O-])c1c(Cl)c(Cl)c(Cl)c(Cl)c1-c1c2cc(I)c(=O)c(I)c-2oc2c(I)c([O-])c(I)cc12.[Na+].[Na+] [rose bengal]		recovered	reduction		no significant change	significantly improved
